ChEMBL document CHEMBL1240466, “New substituted 4-arylaminoquinazolines as potent inhibitors of breast tumor cell lines: in vitro and docking experiments” (Eur J Med Chem, 2010)
Activity calls are given as the source filed them.

Key:
Format in all cases: functional, cell-based
PC-3 = experiment: Cytotoxicity against human PC3 cells by spectrophotometry
K562 = experiment: Cytotoxicity against human K562 cells by spectrophotometry
MCF7 = experiment: Cytotoxicity against human MCF7 cells by spectrophotometry
HT-29 = experiment: Cytotoxicity against human HT-29 cells by spectrophotometry
OVCAR-3 = experiment: Cytotoxicity against human OVCAR-3 cells by spectrophotometry
NCI/ADR-RES = experiment: Cytotoxicity against human NCI/ADR-RES cells by spectrophotometry
UACC-62 = experiment: Cytotoxicity against human UACC62 cells by spectrophotometry
NCI-H460 = experiment: Cytotoxicity against human NCI-H460 cells by spectrophotometry

Measured: Activity

c1ccc(Nc2ncnc3cc4c(cc23)OCO4)cc1
active: all assays above

Cc1cccc(Nc2ncnc3cc4c(cc23)OCO4)c1
active: all assays above
